Measurements: article PMC6407576, “Synthesis and evaluation of anticancer, antiphospholipases, antiproteases, and antimetabolic syndrome activities of some 3H-quinazolin-4-one derivatives” (Journal of Enzyme Inhibition and Medicinal Chemistry, 2019)

What was measured:
SW620 cells = assay: MTT cell viability assay; type: cell-based, Human; conditions: for viability at 30 µg/mL: Homo sapiens, SW-620, 24 h, read-out: cell viability; for inhibition of cell viability (in words): SW620, 30 μg/ml, MTT
Protocol: (§1) Human CRC cell lines, HT-29 and SW620 cells were grown in RPMI (Invitrogen) containing 10% heat-inactivated foetal bovine serum, 100 µg/ml streptomycin, 100 units/ml penicillin and 2 mmol/l L-glutamine.
(§2) Cell viability was determined using the 3-(4, 5-dimethylthiazolyl-2)–2, 5-diphenyltetrazolium bromide) MTT assay according to Mosmann[40]. 5-Fluorouracil (5-FU) was used as positive control. Briefly, after culturing cells in 96 well plates for 24 h, they were treated with different compounds (30 μg/ml) for 24 h. Freshly prepared MTT (5 mM) solutions were added to the cells and were further incubated for 2 h at 37 °C in 5% CO2. One hundred microliters of dimethyl sulphoxide (DMSO) was added in each well to dissolve the formazan crystal, formed in the reaction during incubation by careful pipetting. The absorbance of the product was measured at 540 nm using a microplate reader. The experiments were performed in triplicate for each condition. The graph illustrates the mean and standard deviation (SD) values of three independent experiments.

HT-29 cells = assay: MTT cell viability assay; type: cell-based, Human; conditions: for viability at 30 µg/mL: Homo sapiens, HT-29, 24 h, read-out: cell viability; for inhibition of cell viability (in words): HT-29, 30 μg/ml, MTT
Protocol: as §1, §2

[1] = target: Naja mossambica mossambica sPLA2 (NmPLA2); assay: In vitro antiphospholipase activity; type: biochemical; conditions: 20 min preincubation, lecithin substrate, pH 7.6
trypsin = target: T1, trypsin (Bos taurus, UniProt P00760); assay: In vitro antiprotease activity; type: biochemical; conditions: 15 min preincubation; read-out: mean IC50 against Trypsin (converted)
T1 construct: gene PRSS1
T1 sequence (P00760 24-246): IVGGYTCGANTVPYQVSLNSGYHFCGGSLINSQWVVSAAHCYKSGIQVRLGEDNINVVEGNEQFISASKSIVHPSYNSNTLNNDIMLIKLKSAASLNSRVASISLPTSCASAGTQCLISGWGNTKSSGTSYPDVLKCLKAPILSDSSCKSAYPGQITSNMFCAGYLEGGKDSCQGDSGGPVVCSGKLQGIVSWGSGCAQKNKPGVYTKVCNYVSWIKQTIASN
Protocol: (§3) The inhibitory effects of 21 3H-quinazolin-4-one derivatives on several available therapeutically important proteases such as cathepsin-B, collagenase, elastase, thrombin, and trypsin were investigated. […] The protease inhibitory activity was expressed as inhibition percentage, which was determined by comparison with a control experiment. The results were expressed as IC50 values that were determined from the standard curve. A protease inhibitor cocktail (Sigma) was used as the positive control.

elastase = assay: In vitro antiprotease activity; type: biochemical; conditions: 15 min preincubation
Protocol: as §3

cathepsin-B = cathepsin-B (Homo sapiens, UniProt P07858); assay: In vitro antiprotease activity; type: biochemical; conditions: 15 min preincubation; read-out: mean IC50 against Cathepsin-B (converted)
Protocol: as §3

collagenase = assay: In vitro antiprotease activity; type: biochemical; conditions: 15 min preincubation
Protocol: as §3

thrombin = thrombin (Homo sapiens, UniProt P00734); assay: In vitro antiprotease activity; type: biochemical; conditions: 15 min preincubation; read-out: mean IC50 against Thrombin (converted)
Protocol: as §3

[2] = target: T2, human group X (hG-X) sPLA2 (Homo sapiens, UniProt O15496); assay: In vitro antiphospholipase activity; type: biochemical; conditions: 20 min preincubation, lecithin substrate, pH 7.6; read-out: mean IC50 against hG-X (converted)
T2 sequence (O15496 43-165): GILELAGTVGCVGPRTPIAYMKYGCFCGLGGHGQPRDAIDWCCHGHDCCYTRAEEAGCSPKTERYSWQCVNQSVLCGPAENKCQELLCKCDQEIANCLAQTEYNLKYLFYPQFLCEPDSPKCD

xanthine oxidase = xanthine oxidase (Homo sapiens, UniProt P47989); assay: In vitro inhibition of xanthine oxidase; type: biochemical
Sequence of xanthine oxidase (P47989 whole entry, species assumed): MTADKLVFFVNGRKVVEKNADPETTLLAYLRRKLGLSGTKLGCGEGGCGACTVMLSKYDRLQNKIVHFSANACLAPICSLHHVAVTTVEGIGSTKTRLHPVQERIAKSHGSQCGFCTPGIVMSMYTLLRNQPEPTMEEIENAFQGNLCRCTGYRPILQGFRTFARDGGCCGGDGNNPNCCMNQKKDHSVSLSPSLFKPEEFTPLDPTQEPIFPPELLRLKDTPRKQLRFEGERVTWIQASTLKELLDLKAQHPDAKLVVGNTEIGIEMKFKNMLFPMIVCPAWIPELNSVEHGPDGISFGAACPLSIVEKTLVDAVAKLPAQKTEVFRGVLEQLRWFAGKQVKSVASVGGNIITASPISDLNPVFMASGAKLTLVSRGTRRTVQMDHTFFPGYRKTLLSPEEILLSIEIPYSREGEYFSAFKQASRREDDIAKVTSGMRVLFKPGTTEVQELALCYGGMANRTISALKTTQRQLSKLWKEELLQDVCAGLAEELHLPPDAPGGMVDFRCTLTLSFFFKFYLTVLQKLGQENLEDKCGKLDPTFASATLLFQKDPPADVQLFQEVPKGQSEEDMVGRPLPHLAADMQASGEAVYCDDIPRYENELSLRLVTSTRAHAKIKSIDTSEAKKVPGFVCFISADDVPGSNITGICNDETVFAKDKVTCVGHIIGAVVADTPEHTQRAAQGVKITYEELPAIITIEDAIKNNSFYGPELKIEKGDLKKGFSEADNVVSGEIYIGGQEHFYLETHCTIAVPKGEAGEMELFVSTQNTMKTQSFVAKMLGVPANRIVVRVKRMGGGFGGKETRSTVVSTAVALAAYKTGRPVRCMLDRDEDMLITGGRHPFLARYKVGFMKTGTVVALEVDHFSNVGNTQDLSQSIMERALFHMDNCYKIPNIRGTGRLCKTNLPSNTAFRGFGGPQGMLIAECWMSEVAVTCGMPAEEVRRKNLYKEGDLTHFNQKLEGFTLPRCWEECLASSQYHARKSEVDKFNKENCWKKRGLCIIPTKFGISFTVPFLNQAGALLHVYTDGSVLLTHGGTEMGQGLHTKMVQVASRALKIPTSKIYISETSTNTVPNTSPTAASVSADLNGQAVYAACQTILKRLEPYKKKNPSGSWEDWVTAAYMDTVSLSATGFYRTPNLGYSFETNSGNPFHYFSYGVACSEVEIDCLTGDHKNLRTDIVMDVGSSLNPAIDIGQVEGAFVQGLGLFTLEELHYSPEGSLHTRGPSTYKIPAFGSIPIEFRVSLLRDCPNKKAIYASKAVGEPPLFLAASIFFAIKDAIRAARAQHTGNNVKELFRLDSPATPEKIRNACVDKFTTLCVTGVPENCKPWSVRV
Protocol: The xanthine oxidase inhibitory activities of the examined chemical compounds were determined by following the formation of uric acid from xanthine according to the reported method by Bondet and co-workers[46]. […] The results were expressed as IC50 determined from the curve.

[3] = target: T3, human group IIA (hG-IIA) sPLA2 (Homo sapiens, UniProt P14555); assay: In vitro antiphospholipase activity; type: biochemical
T3 sequence (P14555 21-144): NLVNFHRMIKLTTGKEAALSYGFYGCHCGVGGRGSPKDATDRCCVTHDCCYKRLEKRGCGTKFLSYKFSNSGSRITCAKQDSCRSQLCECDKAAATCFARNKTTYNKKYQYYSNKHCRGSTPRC

[4] = target: T4, human group V (hG-V) sPLA2 (Homo sapiens, UniProt P39877); assay: In vitro antiphospholipase activity; type: biochemical; conditions: 20 min preincubation, lecithin substrate, pH 7.6; read-out: mean IC50 against hG-V (converted)
T4 sequence (P39877 21-138): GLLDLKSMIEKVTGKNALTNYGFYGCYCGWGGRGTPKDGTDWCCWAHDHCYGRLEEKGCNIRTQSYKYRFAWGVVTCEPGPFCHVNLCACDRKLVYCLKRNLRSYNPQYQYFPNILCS

[5] = target: Apis mellifera bee venom (AmPLA2) (Apis mellifera, UniProt P00630); assay: biochemical
Sequence of Apis mellifera bee venom (AmPLA2) (P00630 34-167 limits assumed): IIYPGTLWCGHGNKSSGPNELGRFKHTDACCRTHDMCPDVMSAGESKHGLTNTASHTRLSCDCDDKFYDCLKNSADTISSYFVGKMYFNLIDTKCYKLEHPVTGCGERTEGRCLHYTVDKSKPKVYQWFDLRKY

Row | Compound | viability at 30 µg/mL (SW620 cells) | viability at 30 µg/mL (HT-29 cells) | mean IC50 against NmPLA2 [1] | IC50 (trypsin) | mean IC50 against Elastase (elastase) | IC50 (cathepsin-B) | mean IC50 against Collagenase (collagenase) | IC50 (thrombin) | melting point | IC50 [2] | IC50 (xanthine oxidase) | IC50 [3] | IC50 [4] | IC50 [5] | inhibition of cell viability (in words) (SW620 cells) | inhibition of cell viability (in words) (HT-29 cells)
1 | O=c1[nH]cc(F)c(=O)[nH]1 [Compound 5-FU, 5-Fluorouracil, reference compound] | 42.7% | 65.9% |  |  |  |  |  |  |  |  |  |  |  |  |  | 
2 | COc1cc(-n2c(C)nc3ccc(F)cc3c2=O)cc(OC)c1OC [Compound 5b, 6 -Fluoro-2-methyl-3–(3,4,5-trimethoxy-phenyl)-3H-quinazolin-4-one] | 46.6% |  | 4.15 ± 0.50 µg/mL | 3.19 µM | 0.70 ± 0.01 µg/mL | 31.9 µM | 18.00 ± 1.41 µg/mL | 2.61 µM | 193 to 195 °C | 24.7 µM | 15.7 µM | 60.3 µM | 36.3 µM | 14.8 µM |  | 
3 | Cc1nc2ccccc2c(=O)n1/N=C/c1ccc2ccccc2c1 [Compound 8a, (E)-2-Methyl-3-[(naphthalen-2-ylmethylene)-amino]-3H-quinazolin-4-one] |  |  | 36.75 ± 2.48 µg/mL | 110 µM | 32.50 ± 2.12 µg/mL | 116 µM | 31.00 ± 1.41 µg/mL | 109 µM |  | 90.9 µM | 137 µM | 145 µM | 121 µM | 98.9 µM | potently capable of inhibiting cell viability | potently capable of inhibiting cell viability
4 | COc1cccc(/C=N/n2c(C)nc3ccc(Br)cc3c2=O)c1[N+](=O)[O-] [Compound 8f, (E)-6-Bromo-3-[(3-methoxy-2-nitro-benzylidene)-amino]-2-methyl-3H-quinazolin-4-one] |  |  | 6.00 ± 0.71 µg/mL | 74.3 µM | 30.50 ± 2.12 µg/mL | 45.5 µM | 15.50 ± 2.12 µg/mL | 59.9 µM | 234 to 235 °C | 43.1 µM | 7.19 µM | 44.6 µM | 37.7 µM | 10.1 µM | potently capable of inhibiting cell viability | potently capable of inhibiting cell viability
5 | Cc1nc2ccc(Br)cc2c(=O)n1/N=C/c1ccc(-c2ccccc2)cc1 [Compound 8j, (E)-3-[(Biphenyl-4-ylmethylene)-amino]-6-bromo-2-methyl-3H-quinazolin-4-one] |  |  | 16.40 ± 0.85 µg/mL | 22.7 µM | 9.00 ± 0.41 µg/mL | 3.35 µM | 14.00 ± 1.41 µg/mL | 29.9 µM | 208 to 210 °C | 22.6 µM | 49 µM | 20.2 µM | 14.9 µM | 45.4 µM | potently capable of inhibiting cell viability | potently capable of inhibiting cell viability
6 | Cc1nc2ccccc2c(=O)n1/N=C/N(C)C [Compound 12, (E)-N,N-dimethyl-N′-(2-methyl-4-oxo-4H-quinazolin-3-yl)-formamidine] |  |  | 35.00 ± 2.83 µg/mL | 56.5 µM | 8.50 ± 2.12 µg/mL | 119 µM | 35.50 ± 2.12 µg/mL | 23.9 µM | 100 to 102 °C | 141 µM | 91.2 µM | 200 µM | 150 µM | 122 µM |  | 
7 | O=c1c2ccccc2nc(SCc2ccc(Cl)cc2)n1-c1ccccc1 [Compound 15a] |  |  | 5.40 ± 0.57 µg/mL | 31.7 µM | 11.50 ± 2.12 µg/mL | 48.8 µM | 28.00 ± 1.41 µg/mL | 35.6 µM |  | 17.8 µM | 31.7 µM | 22.7 µM | 27.7 µM | 17.2 µM | potently capable of inhibiting cell viability | potently capable of inhibiting cell viability
8 | Cc1cccc(C)c1NC(=O)CSc1nc2ccccc2c(=O)n1-c1ccccc1 [Compound 15c, N-(2,6-Dimethyl-phenyl)-2-(4-oxo-3-phenyl-3,4-dihydro-quinazolin-2-ylsulfanyl)-acetamide] |  | 47.5% | 28.50 ± 2.12 µg/mL | 37.3 µM | 18.50 ± 0.71 µg/mL | 26.5 µM | 18.00 ± 1.41 µg/mL | 42.1 µM | 218 to 220 °C | 102 µM | 148 µM | 96.3 µM | 56.6 µM | 52.9 µM |  | 
9 | Cc1ccc2nc(SCC(=O)Nc3cccc(C)c3C)n(-c3ccccc3)c(=O)c2c1 [Compound 15f, N-(2,3-Dimethyl-phenyl)-2-(6-methyl-4-oxo-3-phenyl-3,4-dihydro-quinazolin-2-ylsulfanyl) -acetamide] |  |  | 33.00 ± 2.83 µg/mL | 39.6 µM | 16.00 ± 1.41 µg/mL | 9.31 µM | 10.50 ± 2.12 µg/mL | 40.7 µM | 218 to 220 °C | 51.2 µM | 136 µM | 90.8 µM | 70.1 µM | 86.7 µM |  | 
